We go through 56 molecules from PubChem BioAssay AID2753 (Vanderbilt High Throughput Screening Facility, 2010).

Molecules are shown by their SMILES. Active and inactive are the calls of the source. The rule behind the calls is not given here.

Sequence of ATP-sensitive inward rectifier potassium channel 1 (Homo sapiens) (P48048 whole entry, looked up): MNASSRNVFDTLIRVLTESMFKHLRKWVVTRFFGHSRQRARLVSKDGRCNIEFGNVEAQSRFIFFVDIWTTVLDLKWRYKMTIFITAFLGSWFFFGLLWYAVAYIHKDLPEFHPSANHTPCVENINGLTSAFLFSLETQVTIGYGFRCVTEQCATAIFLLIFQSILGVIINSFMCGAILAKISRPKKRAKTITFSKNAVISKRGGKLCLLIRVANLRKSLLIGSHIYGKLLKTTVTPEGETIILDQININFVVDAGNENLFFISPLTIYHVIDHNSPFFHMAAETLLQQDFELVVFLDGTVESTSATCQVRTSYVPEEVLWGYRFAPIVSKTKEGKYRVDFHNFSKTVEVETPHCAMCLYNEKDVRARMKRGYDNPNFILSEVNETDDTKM

This experiment has as its target ATP-sensitive inward rectifier potassium channel 1 (Homo sapiens) (UniProt P48048). Nature of the experiment: ROMK channel inhibitor potency, dose response, cell-based, thallium flux, HEK293 (AID 2753). As to conditions: fluorescence.
Take `CC1CCCCC1NC(=O)CN1C(=O)CSc2cc(S(=O)(=O)N3CCCCCC3)ccc21` (stereo unspecified): the 50% inhibitory concentration (IC50) was 55.3 µM.
For `Cc1cc(N2CCOCC2)ccc1/C=C\[N+](=O)[O-]`, the half-inhibitory concentration (IC50) is 3.4 µM.
To `O=[N+]([O-])c1ccc(N2CCCNCC2)c2ncccc12` belongs 10.7 µM; to `CNC(=O)c1nnsc1S(=O)c1ccc(Cl)cc1` (stereo unspecified), 0.647 µM.
For `N#C/C(=C\C1=C(N2CCOCC2)C(=C\c2ccccc2)/CC1)C(=O)Nc1ccccc1F`, the IC50 is 14.5 µM.
Regarding `N#C/C(=C\c1cccc(Oc2ccccc2)c1)C(=O)N1CCOCC1`, the IC50 is 6.57 µM.
Then `CCOCCCNC(=O)/C(C#N)=C/c1ccc(C(=O)OC)cc1`, with “inactive”; and `COCc1cc(C)nc(SCC[N+](C)(C)CC(=O)Nc2cccc(C(F)(F)F)c2)c1C#N`, with 9.27 µM; and `COc1cccc(/C=C2\SC(=S)N(N3C(=O)CCCC3=O)C2=O)c1`, with “inactive”.
Then `Cc1ccccc1-n1sc2cc(F)ccc2c1=O`, with “inactive”.
Then `COc1ccccc1/C=C(\C#N)C(=O)Nc1ccc(S(N)(=O)=O)cc1`, with “inactive”.
For `COCCNC(=O)/C(C#N)=C/c1cccc(/C=C(\C#N)C(=O)NCCOC)c1`, the half-maximal inhibitory concentration (IC50) was 2.87 µM.
Then `COC(=O)C(=Cc1ccccc1[N+](=O)[O-])C(=O)OC`, with 8.19 µM; and `CCCC(C(=O)NCc1ccco1)N(C(=O)CNS(=O)(=O)c1ccccc1)c1ccccc1OC` (stereo unspecified), with “inactive”; and `N#C/C(=C\C1CC=CCC1)c1nc2ccccc2[nH]1` (stereo unspecified), with “inactive”.
Consider `COc1cc2c(cc1OC)C(/C=C/c1ccco1)=NCC2`, for which the IC50 is 4.07 µM.
Then `COCCCNc1ccc([N+](=O)[O-])cc1C(=O)Nc1cccc(C)n1`, with 13.7 µM.
To `COc1ccccc1-n1c(SCC(=O)N2CCc3ccccc32)nc2c(c1=O)SCC2` belongs 6.43 µM; to `N#Cc1cccc(N=c2ssnc2Cl)c1`, 8.39 µM; to `CCCCC1(CCCC)C(=O)NC(=Nc2cccc(C)c2)NC1=O`, 3.01 µM.
Then `O=C(/C(=C/c1ccc(Cl)cc1)c1nc2ccccc2[nH]1)c1cccs1`, with 4.56 µM; and `CC1CN(c2ccc([N+](=O)[O-])c(NCCOc3ccccc3)c2)CCN1` (stereo unspecified), with “inactive”.
For the molecule `CN(C)c1cc(O)c(C(=S)Nc2ccccc2)c(N(C)C)c1`, the IC50 is 75.5 µM.
To `N#CC1=C(N)N(c2ccccc2)C(c2cccc([N+](=O)[O-])c2)C1(C#N)C#N` (stereo unspecified) belongs 11.5 µM; to `COc1cc(/C=C(\C#N)C(N)=O)ccc1OS(=O)(=O)c1ccc(C)cc1`, 31 µM; to `CC(C(=O)c1ccc(-c2ccccc2)cc1)[n+]1cccc(NC(=O)c2ccccc2)c1` (stereo unspecified), 27.9 µM.
Consider `CCOc1ccccc1N(CC(=O)N1CCOCC1)S(=O)(=O)c1ccc(SC)cc1`, for which the IC50 was 1.4 µM.
To `Cc1cnc2ncc3sccc3c2c1` belongs 13.5 µM; to `O=C(N/N=C/c1cn(-c2cccs2)nc1-c1ccccc1)c1ccc(O)cc1`, 4.99 µM; to `O=C1c2cccc3c([N+](=O)[O-])ccc(c23)C(=O)N1CC1CCCO1` (stereo unspecified), “inactive”.
Regarding `CC1=NOC(=O)/C1=C\c1ccc(-c2ccccc2Br)o1`, the IC50 entry is “inactive”.
With `COc1cccc(C(c2nnnn2Cc2ccccc2)N2CCN(C3CCCC3)CC2)c1OC` (stereo unspecified), the half-maximal inhibitory concentration (IC50) was 35.6 µM.
To `Cc1cc(C)c(C)c(S(=O)(=O)NC2CCN(Cc3ccccc3)CC2)c1C` belongs 17 µM; to `COC(=O)/C=C1\SC(=NC(=O)c2cccc(Cl)c2)NC1=O`, “inactive”; to `O=C(O)c1cccc(CN2C(=O)S/C(=C/c3cccc([N+](=O)[O-])c3)C2=O)c1`, 5.71 µM.
In the case of `CCCNc1nc(Cl)nc(NC(C)(C)C)n1`, the IC50 was 2.78 µM.
Regarding `CN(CCCC(=O)Nc1ccncc1)S(=O)(=O)c1ccc(Cl)cc1`, the IC50 result was “inactive”.
Regarding `N#C/C(=C/c1ccncc1)c1nc2ccccc2s1`, the half-inhibitory concentration (IC50) was 2.68 µM.
To `CS(=O)(=O)N1CCc2cc(-c3csc(NC(=O)Cc4cccs4)n3)ccc21` belongs “inactive”.
As for `O=C1ON=C(c2cccc([N+](=O)[O-])c2)/C1=C/c1ccc(O)cc1`, the half-inhibitory concentration (IC50) is 5.68 µM.
With `COc1cc(/C=C(/C(=O)c2cccs2)c2nc3ccccc3[nH]2)ccc1O`, the IC50 entry was “inactive”.
Consider `COC(=O)C1=C(C)N(C)C(C)=C(C(=O)OC)C1c1ccccc1C`, for which the 50% inhibitory concentration (IC50) is 39.9 µM.
Then `O=C1CCCCCN1Sc1ccccc1`, with 4.49 µM; and `O=C(/C=C/c1cn(CC(O)CN2CCCCC2)c2ccccc12)c1ccccc1` (stereo unspecified), with “inactive”.
Consider `CCOC(=O)c1ccc(-n2c(O)c(/C=N/NC(=O)C3COc4ccccc4O3)c3ccccc3c2=O)cc1` (stereo unspecified), for which the IC50 entry was “inactive”.
Then `CN(C)c1nc(C=C(C#N)C#N)c(Cl)n1-c1ccc(F)cc1`, with 2.98 µM; and `CC(C)(C)c1ccc(N2C(=N)SCC2=O)cc1`, with 3.24 µM; and `CCCC(=O)OCCNc1cc(Sc2nccn2C)c2nonc2c1[N+](=O)[O-]`, with 157 µM.
For the molecule `CCOC(=O)C(=Cc1ccc(-n2cncn2)cc1)C(=O)OCC`, the 50% inhibitory concentration (IC50) was 95.8 µM.
Take `CCc1cccc(NC(=O)CSC2=NS(=O)(=O)c3ccccc32)c1`: the IC50 result was “inactive”.
Then `O=C(NCc1cccnc1)/C(=C/c1ccc(-c2cccc(Cl)c2)o1)S(=O)(=O)c1ccccc1`, with “inactive”; and `Cc1ccc(Oc2c(C(N)=O)cc([N+](=O)[O-])cc2[N+](=O)[O-])cc1`, with 51 µM; and `O=C(Nc1ccc2oc(=O)ccc2c1)c1cc([N+](=O)[O-])ccc1N1CCOCC1`, with 3.41 µM.
To `COc1cc(/C=C2\C(=N)N3N=CSC3=NC2=O)cc(Br)c1OC(=O)c1ccco1` belongs 4.53 µM; to `O=C(c1nnsc1S(=O)c1ccc(Cl)cc1)N1CCOCC1` (stereo unspecified), 2.2 µM; to `Cc1cc(C)n2nc(/C(C#N)=C/c3ccccn3)c(C#N)c2n1`, 88.3 µM.
